Test results taken from patent US5430055A, “Inhibitor of squalene synthase” (Pfizer Inc., priority 1994, dated 1995).

Columns and labels:
[1] = tested on: Cryptococcus bhutanensis, Sensitive Strain (against zaragozic Acid A); experiment: Antifungal bioassay, zone of inhibition, sensitive strain (against zaragozic acid A); assay type: cell-based; conditions: yeast nitrogen based medium, 28° C., 2 to 3 days
Description: (§1) The antifungal activity of the compound I was determined with a bioassay such as Cryptococcus bhutanensis FD 23971. A ten-day-old slant of C. bhutanensis was washed with 10 ml of sterile water, and 300 μl of the suspension was mixed with an assay medium consisting of 0.67% of yeast nitrogen based medium (DIFCO) and 0.5% of glucose. 150 ml of the warm medium was poured onto a sterile, polystyrene bioassay plate (245×245×20 mm) and was left to solidify. The solid medium was bored into well-separated wells with a size #2 cork bore, and 25 μl of whole broth or extracted broth was spotted into the wells. The plates were incubated at 28° C. for 2 to 3 days and the zone of inhibition was measured.
(§2) The zones of inhibition against Cryptococcus bhutanensis on a yeast nitrogen based medium are as follows: […]

[2] = tested on: Cryptococcus bhutanensis, Resistant Strain; experiment: Antifungal bioassay, zone of inhibition, resistant strain; assay type: cell-based; conditions: yeast nitrogen based medium, 28° C., 2 to 3 days
Description: as §1, §2

[3] = molecular target: T1, squalene synthase (Homo sapiens, UniProt P37268); experiment: Squalene Synthase Inhibition Assay; assay type: biochemical; conditions: microsomal protein, 30 minutes at 37° C., pH 7.4
T1 sequence (P37268 1-417): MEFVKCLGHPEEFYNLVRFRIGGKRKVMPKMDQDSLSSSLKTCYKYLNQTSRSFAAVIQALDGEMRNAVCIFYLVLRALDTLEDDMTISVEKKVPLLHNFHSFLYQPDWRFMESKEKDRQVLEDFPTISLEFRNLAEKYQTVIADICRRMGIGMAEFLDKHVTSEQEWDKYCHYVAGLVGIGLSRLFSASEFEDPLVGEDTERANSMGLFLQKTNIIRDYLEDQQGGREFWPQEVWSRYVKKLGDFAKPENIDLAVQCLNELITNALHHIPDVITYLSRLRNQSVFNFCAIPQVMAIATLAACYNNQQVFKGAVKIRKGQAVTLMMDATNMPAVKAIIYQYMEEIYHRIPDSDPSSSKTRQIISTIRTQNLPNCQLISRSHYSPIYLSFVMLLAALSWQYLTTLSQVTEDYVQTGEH
Description: The squalene synthase inhibition assay was conducted in a final volume of 75 μl. The reaction is initiated by addition of 25 μl of the diluted and deoxygenated microsomal suspension to a mixture of 47 μl of the deoxygenated SQS substrate/cofactor solution and 3 μl of the deoxygenated test compound solution as set out in Table 6.
Glucose-6-phosphate 0.95 U
The microsomal suspensions were diluted to a microsomal protein concentration of 1 mg/ml and deoxygenated by repetitive cycles of evacuation and airation with nitrogen. […] Control incubations received 3 μl of deoxygenated dimethyl sulfoxide and enzyme blanks received 25 μl of deoxygenated PMED buffer (50 mM K2 PO4 (pH=7.4), 5 mM MgCl2, 1 mM EDTA, 5 mM dithiothreitol). Assay tubes were immediately flushed with nitrogen and capped, and the solution was vortexed gently. Following 30 minutes of incubation at 37° C., reactions were terminated by addition of 40 μl of 10M sodium hydroxide. […] The region of the chromatogram from 1 cm below the squalene band (visualized with iodine vapors) to the top of the chromatogram was removed and counted in a liquid scintillation counter using Aquasol-2 liquid scintillation fluid. […]
SQS activity (overall reaction) is calculated as pmoles of [3H] squalene formed from [1-3H] […]

[4] = molecular target: T2, ras farnesyltransferase (Rattus norvegicus, UniProt Q02293+Q04631); experiment: ras Farnesyltransferase inhibition assay; assay type: biochemical; conditions: rat brain cytosol, H-ras 4 μM, 30 minutes at 37° C., pH 7.5
T2 construct: diluted rat brain cytosol; from tissue; host or cells: rat brain cytosol
Description: The ras farnesyltransferase inhibition assay was conducted in a final volume of 25 μL. The reaction is initiated by addition of 10 μpL of the diluted rat brain cytosol to a mixture of 15 μL of the ras farnesyltransferase substrate/cofactor solution and 0.3 μL of test compound solution as set out in Table 7.
The rat brain cytosols were diluted to a protein concentration of 3.0 mg/mL. Test compound solutions were prepared in dimethyl sulfoxide at concentrations of 25 mM (final assay concentration 300 μM). Control incubations received 0.3 μL of dimethyl sulfoxide and enzyme blanks received 10 μL rat brain homogenization buffer (50 mM tris HCl (pH=7.5), 5 mM dithiothreitol, 0.2M KCl, 20 μM ZnCl2). After a 30 minute incubation at 37° C., the reaction was terminated by addition of 200 μL of 10% (v/v) HCl in EtOH. After an additional 15 minute incubation at 37° C., 300 μl absolute EtOH were added and the entire sample was applied to a filtration well of a Packard Unifilter-GF/B 96-well plate under vacuum. After complete sample addition, the filter well was washed four times with 500 μl each of absolute ethanol and allowed to dry. The bottom of the Unifilter-GF/B plate was then sealed, 50 μl Microscint-20 liquid scintillation fluid were added to each well and the plate was heat-sealed and then counted in a Packard Top-Count liquid scintillation counter.
ras Farnesyltransferase Assay […]

[5] = tested on: ras protein farnesylation; conditions: background statement; cited from earlier work

With `C/C=C/CCCCC[C@@H]1C=C2[C@]3(CC(=O)O)CC4=C(C(=O)OC4=O)[C@@H]4[C@H]1C[C@H](C(=O)CC/C=C/C)O[C@]24OC3=O` [CP-263,114] the zone of inhibition [1] was 42 mm and the zone of inhibition [2] was 45 mm.

Work on `C/C=C/CCCCC[C@@H]1C=C2[C@]3(CC(=O)O)CC4=C(C(=O)OC4=O)[C@H]([C@H]1C[C@@H](O)C(=O)CC/C=C/C)[C@@]2(O)OC3=O` [Fraction 5 compound] yielded an IC50 [3] of 48 µM, an IC50 [4] of 6 µM and a zone of inhibition [1] of 15 mm. For the same compound, the zone of inhibition [2] was 22 mm.

In the case of `C=C(CC[C@]12O[C@H](C(=O)O)[C@@](O)(C(=O)O)[C@](C(=O)O)(O1)[C@H](OC(=O)/C=C/[C@@H](C)C[C@@H](C)CC)[C@H]2O)[C@@H](OC(C)=O)[C@H](C)Cc1ccccc1` [Zaragozic acid A, reference compound], the IC50 [4] is listed as 3 µM and the “inhibition of farnesylation of ras protein” value [5] is listed as “inhibit farnesylation of ras protein”.
